Experimental data taken from ChEMBL document CHEMBL1148261, “Pharmacophore-based search, synthesis, and biological evaluation of anthranilic amides as novel blockers of the Kv1.5 channel” (Bioorg Med Chem Lett, 2004).

Legend:
[1] = pKa value was determined; assay type: physicochemical
[2] = target: T1, Potassium voltage-gated channel subfamily A member 5 (Homo sapiens, UniProt P22460); assay: Inhibitory effect against human voltage-gated potassium channel subunit Kv1.5 expressed in Xenopus oocytes; assay type: cell-based, Oocyte
T1 sequence (P22460 whole entry): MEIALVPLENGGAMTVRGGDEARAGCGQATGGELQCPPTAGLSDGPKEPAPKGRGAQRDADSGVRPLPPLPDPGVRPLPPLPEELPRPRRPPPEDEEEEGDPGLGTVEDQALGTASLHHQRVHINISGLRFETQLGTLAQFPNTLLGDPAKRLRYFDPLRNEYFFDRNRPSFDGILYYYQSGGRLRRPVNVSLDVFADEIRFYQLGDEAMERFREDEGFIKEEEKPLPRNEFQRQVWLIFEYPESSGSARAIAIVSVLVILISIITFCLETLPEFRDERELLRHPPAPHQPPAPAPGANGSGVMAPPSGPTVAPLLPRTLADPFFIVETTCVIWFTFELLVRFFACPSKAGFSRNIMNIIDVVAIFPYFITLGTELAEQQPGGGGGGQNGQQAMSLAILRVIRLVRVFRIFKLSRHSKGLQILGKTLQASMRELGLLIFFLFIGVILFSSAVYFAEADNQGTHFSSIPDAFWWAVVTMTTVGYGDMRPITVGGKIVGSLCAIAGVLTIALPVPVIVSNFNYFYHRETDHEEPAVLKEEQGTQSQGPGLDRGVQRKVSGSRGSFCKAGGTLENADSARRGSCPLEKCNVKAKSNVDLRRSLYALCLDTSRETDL

[3] = Oral bioavailability of compound in rats; assay type: ADME, organism-based; settings: rat, in vivo
[4] = target: T1, Potassium voltage-gated channel subfamily A member 5; assay: Percent inhibition of human voltage-gated potassium channel subunit Kv1.5 expressed in Xenopus oocytes at 10 uM; assay type: cell-based; settings: Oocyte

Compound	IC50 [2] [µM]	further results
CC[C@H](NC(=O)c1cc(OC)ccc1NS(=O)(=O)c1ccc(C)cc1)c1ccccc1		pKa [1]: 7.5
Cc1ccc(S(=O)(=O)Nc2ccccc2C(=O)N(Cc2cccnc2)Cc2cccnc2)cc1	2.2	
CC[C@H](NC(=O)c1ccccc1NS(=O)(=O)c1ccccc1)c1ccccc1	1.3	pKa [1]: 6.9
Cc1ccc(S(=O)(=O)Nc2ccccc2C(=O)NCCc2ccccc2)cc1	6.7	
Cc1ccc(S(=O)(=O)Nc2ccccc2C(=O)N(Cc2ccccc2)Cc2cccnc2)cc1		bioavailability [3]: 43%
CC[C@H](NC(=O)c1cc(F)ccc1NS(=O)(=O)c1ccc(Cl)cc1)c1ccccc1	3.8	pKa [1]: 6.5
CC[C@H](NC(=O)c1ccccc1NS(=O)(=O)c1ccc(C)cc1)c1ccccc1	0.7	pKa [1]: 7.2
Cc1ccc(S(=O)(=O)Nc2ccccc2C(=O)NC(c2ccccc2)C2CC2)cc1 (configuration not stated)	1.6	
O=C(NCc1ccccc1)c1cc(Cl)ccc1NS(=O)(=O)c1ccc(Cl)cc1	5.6	
CC[C@H](NC(=O)c1ccccc1NS(=O)(=O)c1cccnc1)c1ccccc1		inhibition [4]: 36%
CC[C@H](NC(=O)c1cc(C(C)=O)ccc1NS(=O)(=O)c1ccc(C)cc1)c1ccccc1	3.8	
CC[C@H](NC(=O)c1cc(OCC2CC2)ccc1NS(=O)(=O)c1ccc(C)cc1)c1ccccc1		inhibition [4]: 41%
CC[C@H](NC(=O)c1cc(OCCOC)ccc1NS(=O)(=O)c1ccc(C)cc1)c1ccccc1		inhibition [4]: 46%
CC[C@H](NC(=O)c1ccccc1NS(=O)(=O)c1cccc2cnccc12)c1ccccc1	9	
CC[C@H](NC(=O)c1ccccc1NS(=O)(=O)c1cccc2cccnc12)c1ccccc1	0.6	
CC[C@H](NC(=O)c1cc(OCN(C)C)ccc1NS(=O)(=O)c1ccc(C)cc1)c1ccccc1		inhibition [4]: 15%
CC[C@H](NC(=O)c1ccccc1NS(=O)(=O)CC)c1ccccc1	10	
CC[C@H](NC(=O)c1ccccc1NS(=O)(=O)c1ccc(C(F)(F)F)cc1)c1ccccc1	4	pKa [1]: 6.2
